Measurements as given in US6465395B2, “Substituted methylene pyrazolinones and the herbicidal use thereof” (BASF Aktiengesellschaft, priority 2000, dated 2002).

Experiments:
Type in all cases: in vivo
Parameters in all cases: scale not given here
[1] = tested on: ORYSAT, Rice, Tebonnet, Oryza sativa, (L.) Tebonnet; test: Postemergence herbicidal evaluation; conditions: crop (rice)
Experimental: (§1) The postemergence herbicidal activity of the compounds of the present invention is evaluated by the following tests. Seedling plants are grown in jiffy flats for about two weeks. The test compounds are dispersed in 80/20 (v/v) acetone/water mixtures containing 1.0% SUN-IT®II, a methylated seed oil, in sufficient quantities to provide the equivalent of about 0.006 kg/ha to 0.800 kg/ha of active compound when applied to the plants through a spray nozzle operating at 40 psi for a predetermined time. After spraying, the plants are placed on greenhouse benches and are cared for in accordance with conventional greenhouse procedures. Approximately two to three weeks after treatment, the seedling plants are examined and rated according to the rating system set forth below. Where more than one test is involved for a given compound, the data are averaged.

[2] = tested on: IPOSS, Morningglory spp., Ipomoea spp.; test: Postemergence herbicidal evaluation
Experimental: as §1

[3] = tested on: AMBEL, Ragweed, Ambrosia artemisifolia, L.; test: Postemergence herbicidal evaluation
Experimental: as §1

[4] = tested on: PANDI, Panicum, Fall, Panicum dichotomiflorum, Michx; test: Postemergence herbicidal evaluation
Experimental: as §1

[5] = tested on: ABUTH, Velvetleaf, Abutilon theophrasti, Medic.; test: Postemergence herbicidal evaluation
Experimental: as §1

[6] = tested on: ZEAMX, Corn, Field, Zea mays, L.; test: Postemergence herbicidal evaluation; conditions: crop (corn)
Experimental: as §1

[7] = tested on: ECHCG, Barnyardgrass, Echinochloa crus-galli, (L.) Beau; test: Postemergence herbicidal evaluation
Experimental: as §1

[8] = tested on: SETVI, Foxtail, Green, Setaria viridis, (L.) Beau; test: Postemergence herbicidal evaluation
Experimental: as §1

[9] = tested on: ORYSAT, Rice, Tebonnet, Oryza sativa, (L.) Tebonnet; test: Preemergence herbicidal evaluation; conditions: crop (rice)
From the text: (§2) The preemergence herbicidal activity of the test compounds of the present invention is exemplified by the following tests in which the seeds of a variety of monocotyledonous and dicotyledonous plants are separately mixed with potting soil and planted on top of approximately one inch of soil in separate pint cups. After planting, the cups are sprayed with the selected aqueous acetone solution containing test compound in sufficient quantity to provide the equivalent of about 0.0125 kg/ha to 0.800 kg/ha of test compound per cup. The treated cups are then placed on greenhouse benches, watered and cared for in accordance with conventional greenhouse procedures. Approximately two to four weeks after treatment, the tests are terminated and each cup is examined and rated according to the rating system provided in Example 12. When more than one test is performed for a given compound, the data are averaged.

[10] = tested on: IPOSS, Morningglory spp., Ipomoea spp.; test: Preemergence herbicidal evaluation
From the text: as §2

[11] = tested on: AMBEL, Ragweed, Ambrosia artemisifolia, L.; test: Preemergence herbicidal evaluation
From the text: as §2

[12] = tested on: PANDI, Panicum, Fall, Panicum dichotomiflorum, Michx; test: Preemergence herbicidal evaluation
From the text: as §2

[13] = tested on: GOSHI, Cotton, Gossypium hirsutum, L.; test: Preemergence herbicidal evaluation; conditions: crop (cotton)
From the text: as §2

[14] = tested on: ABUTH, Velvetleaf, Abutilon theophrasti, Medic.; test: Preemergence herbicidal evaluation
From the text: as §2

[15] = tested on: CHEAL, Lambsquarters, Chenopodium album, L.; test: Preemergence herbicidal evaluation
From the text: as §2

[16] = tested on: ZEAMX, Corn, Field, Zea mays, L.; test: Preemergence herbicidal evaluation; conditions: crop (corn)
From the text: as §2

[17] = tested on: ECHCG, Barnyardgrass, Echinochloa crus-galli, (L.) Beau; test: Preemergence herbicidal evaluation
From the text: as §2

[18] = tested on: SETVI, Foxtail, Green, Setaria viridis, (L.) Beau; test: Preemergence herbicidal evaluation
From the text: as §2

[19] = tested on: CHEAL, Lambsquarters, Chenopodium album, L.; test: Postemergence herbicidal evaluation
Experimental: as §1

4,4′-[(Z,Z)-Dithiobis[(2,3-dihydro-3,3,4-trimethylbenzo[b]thien-5-yl)methylidyne]]bis[1-methyl-2-pyrazolin-5-one] S,S,S′,S′,-tetraoxide, 80:20 mixture with 4,4′-[(E,Z)-dithiobis[(2,3-dihydro-3,3,4-trimethyl-benzo[b]thien-5-yl)methylidyne]]bis[1-methyl-2-pyrazolin-5-one] S,S,S′,S′-tetraoxide [Example 7]
5.0: Herbicide rating PANDI ([4]; 0.0125 kg/ha) | Herbicide rating ABUTH ([5]; 0.0500 kg/ha)
2.0: Herbicide rating IPOSS ([2]; 0.0500 kg/ha) | Herbicide rating IPOSS ([2]; 0.1000 kg/ha) | Herbicide rating ZEAMX ([6]; 0.1000 kg/ha)
3.0: Herbicide rating PANDI ([4]; 0.0250 kg/ha) | Herbicide rating ABUTH ([5]; 0.0125 kg/ha)
1.0: Herbicide rating IPOSS ([2]; 0.0125 kg/ha) | Herbicide rating IPOSS ([2]; 0.0250 kg/ha)
7.0: Herbicide rating ORYSAT ([1]; 0.0500 kg/ha) | Herbicide rating ORYSAT ([1]; 0.1000 kg/ha) | Herbicide rating AMBEL ([3]; 0.0250 kg/ha) | Herbicide rating PANDI ([4]; 0.0500 kg/ha) | Herbicide rating ABUTH ([5]; 0.1000 kg/ha) | Herbicide rating ECHCG ([7]; 0.0125 kg/ha) | Herbicide rating ECHCG ([7]; 0.0250 kg/ha) | Herbicide rating SETVI ([8]; 0.0125 kg/ha) | Herbicide rating SETVI ([8]; 0.0250 kg/ha)
0.0: Herbicide rating ZEAMX ([6]; 0.0125 kg/ha) | Herbicide rating ZEAMX ([6]; 0.0250 kg/ha) | Herbicide rating ZEAMX ([6]; 0.0500 kg/ha)
3.5: Herbicide rating ORYSAT ([1]; 0.0125 kg/ha)
4.0: Herbicide rating AMBEL ([3]; 0.0125 kg/ha) | Herbicide rating ABUTH ([5]; 0.0250 kg/ha)
6.0: Herbicide rating ORYSAT ([1]; 0.0250 kg/ha)
8.0: Herbicide rating ECHCG ([7]; 0.0500 kg/ha)
9.0: Herbicide rating AMBEL ([3]; 0.0500 kg/ha) | Herbicide rating AMBEL ([3]; 0.1000 kg/ha) | Herbicide rating PANDI ([4]; 0.1000 kg/ha) | Herbicide rating ECHCG ([7]; 0.1000 kg/ha) | Herbicide rating SETVI ([8]; 0.0500 kg/ha) | Herbicide rating SETVI ([8]; 0.1000 kg/ha)

4-Methoximino-5-methyl-6-(1-ethyl-5-hydroxypyrazol-4-yl)thiocarbonylthiochroman-1,1-dioxide, zinc (+2) chelate [Example 6]
3.0: Herbicide rating IPOSS ([10]; 0.1000 kg/ha) | Herbicide rating ECHCG ([17]; 0.0500 kg/ha)
9.0: Herbicide rating ORYSAT ([9]; 0.2000 kg/ha) | Herbicide rating ORYSAT ([9]; 0.4000 kg/ha) | Herbicide rating ORYSAT ([9]; 0.8000 kg/ha) | Herbicide rating AMBEL ([11]; 0.2000 kg/ha) | Herbicide rating AMBEL ([11]; 0.4000 kg/ha) | Herbicide rating AMBEL ([11]; 0.8000 kg/ha) | Herbicide rating PANDI ([12]; 0.1000 kg/ha) | Herbicide rating PANDI ([12]; 0.2000 kg/ha) | Herbicide rating ABUTH ([14]; 0.0500 kg/ha) | Herbicide rating ABUTH ([14]; 0.1000 kg/ha) | Herbicide rating ABUTH ([14]; 0.2000 kg/ha) | Herbicide rating ABUTH ([14]; 0.4000 kg/ha) | Herbicide rating ABUTH ([14]; 0.8000 kg/ha) | Herbicide rating CHEAL ([15]; 0.0500 kg/ha) | Herbicide rating CHEAL ([15]; 0.1000 kg/ha) | Herbicide rating CHEAL ([15]; 0.2000 kg/ha) | Herbicide rating CHEAL ([15]; 0.4000 kg/ha) | Herbicide rating CHEAL ([15]; 0.8000 kg/ha) | Herbicide rating ECHCG ([17]; 0.1000 kg/ha) | Herbicide rating ECHCG ([17]; 0.2000 kg/ha) | Herbicide rating ECHCG ([17]; 0.4000 kg/ha) | Herbicide rating SETVI ([18]; 0.2000 kg/ha) | Herbicide rating SETVI ([18]; 0.4000 kg/ha) | Herbicide rating SETVI ([18]; 0.8000 kg/ha)
4.0: Herbicide rating ORYSAT ([9]; 0.0500 kg/ha) | Herbicide rating SETVI ([18]; 0.0500 kg/ha)
7.0: Herbicide rating ORYSAT ([9]; 0.1000 kg/ha) | Herbicide rating AMBEL ([11]; 0.0500 kg/ha) | Herbicide rating GOSHI ([13]; 0.8000 kg/ha) | Herbicide rating SETVI ([18]; 0.1000 kg/ha)
5.0: Herbicide rating IPOSS ([10]; 0.4000 kg/ha) | Herbicide rating IPOSS ([10]; 0.8000 kg/ha)
6.0: Herbicide rating IPOSS ([10]; 0.2000 kg/ha) | Herbicide rating PANDI ([12]; 0.0500 kg/ha) | Herbicide rating GOSHI ([13]; 0.2000 kg/ha)
8.0: Herbicide rating AMBEL ([11]; 0.1000 kg/ha) | Herbicide rating PANDI ([12]; 0.4000 kg/ha) | Herbicide rating PANDI ([12]; 0.8000 kg/ha) | Herbicide rating GOSHI ([13]; 0.4000 kg/ha) | Herbicide rating ECHCG ([17]; 0.8000 kg/ha)
0.0: Herbicide rating GOSHI ([13]; 0.0500 kg/ha) | Herbicide rating ZEAMX ([16]; 0.0500 kg/ha) | Herbicide rating ZEAMX ([16]; 0.1000 kg/ha) | Herbicide rating ZEAMX ([16]; 0.2000 kg/ha) | Herbicide rating ZEAMX ([16]; 0.8000 kg/ha)
1.0: Herbicide rating IPOSS ([10]; 0.0500 kg/ha) | Herbicide rating GOSHI ([13]; 0.1000 kg/ha) | Herbicide rating ZEAMX ([16]; 0.4000 kg/ha)

Cc1c(C(=C2C=NN(C)C2=O)N(C)C)ccc2c1C(C)(C)CS2(=O)=O [Example 2, 4-[(Z)-(2,3-Dihydro-3,3,4-trimethylbenzo[b]thien-5-yl)(dimethylamino)methylene]-1-methyl-2-pyrazolin-5-one S,S-dioxide]
0.0: Herbicide rating AMBEL ([3]; 0.0125 kg/ha) | Herbicide rating AMBEL ([3]; 0.0250 kg/ha) | Herbicide rating AMBEL ([3]; 0.0500 kg/ha) | Herbicide rating AMBEL ([3]; 0.1000 kg/ha) | Herbicide rating ABUTH ([5]; 0.0125 kg/ha) | Herbicide rating ABUTH ([5]; 0.0250 kg/ha) | Herbicide rating ABUTH ([5]; 0.0500 kg/ha) | Herbicide rating ABUTH ([5]; 0.1000 kg/ha) | Herbicide rating CHEAL ([19]; 0.0125 kg/ha) | Herbicide rating CHEAL ([19]; 0.0250 kg/ha) | Herbicide rating CHEAL ([19]; 0.0500 kg/ha) | Herbicide rating CHEAL ([19]; 0.1000 kg/ha) | Herbicide rating ZEAMX ([6]; 0.0125 kg/ha) | Herbicide rating ZEAMX ([6]; 0.0250 kg/ha) | Herbicide rating ZEAMX ([6]; 0.0500 kg/ha) | Herbicide rating ZEAMX ([6]; 0.1000 kg/ha) | Herbicide rating ECHCG ([7]; 0.0125 kg/ha) | Herbicide rating ECHCG ([7]; 0.0250 kg/ha) | Herbicide rating ECHCG ([7]; 0.0500 kg/ha) | Herbicide rating ECHCG ([7]; 0.1000 kg/ha) | Herbicide rating SETVI ([8]; 0.0125 kg/ha) | Herbicide rating SETVI ([8]; 0.0250 kg/ha) | Herbicide rating SETVI ([8]; 0.0500 kg/ha) | Herbicide rating SETVI ([8]; 0.1000 kg/ha)

COc1ccc(OC(=C2C=NN(C)C2=O)c2ccc3c(c2C)C(C)(C)CS3(=O)=O)cc1 [Example 3, 4-[(Z)-(2,3-Dihydro-3,3,4-trimethylbenzo-[b]thien-5-yl)(p-methoxyphenoxy)methylene]-1-methyl-2-pyrazolin-5-one, S,S-dioxide]
0.0: Herbicide rating ZEAMX ([6]; 0.0125 kg/ha) | Herbicide rating ZEAMX ([6]; 0.0250 kg/ha) | Herbicide rating ZEAMX ([6]; 0.0500 kg/ha)
5.0: Herbicide rating SETVI ([8]; 0.0500 kg/ha)
8.0: Herbicide rating CHEAL ([19]; 0.0500 kg/ha)
1.0: Herbicide rating SETVI ([8]; 0.0125 kg/ha)
6.0: Herbicide rating CHEAL ([19]; 0.0125 kg/ha) | Herbicide rating CHEAL ([19]; 0.0250 kg/ha) | Herbicide rating ECHCG ([7]; 0.1000 kg/ha)
9.0: Herbicide rating CHEAL ([19]; 0.1000 kg/ha)
7.0: Herbicide rating AMBEL ([3]; 0.0500 kg/ha) | Herbicide rating AMBEL ([3]; 0.1000 kg/ha) | Herbicide rating ABUTH ([5]; 0.0500 kg/ha) | Herbicide rating ABUTH ([5]; 0.1000 kg/ha) | Herbicide rating SETVI ([8]; 0.1000 kg/ha)
2.0: Herbicide rating AMBEL ([3]; 0.0125 kg/ha) | Herbicide rating ABUTH ([5]; 0.0125 kg/ha) | Herbicide rating ZEAMX ([6]; 0.1000 kg/ha) | Herbicide rating ECHCG ([7]; 0.0125 kg/ha)
3.0: Herbicide rating ECHCG ([7]; 0.0250 kg/ha) | Herbicide rating SETVI ([8]; 0.0250 kg/ha)
4.0: Herbicide rating AMBEL ([3]; 0.0250 kg/ha) | Herbicide rating ABUTH ([5]; 0.0250 kg/ha) | Herbicide rating ECHCG ([7]; 0.0500 kg/ha)
